The values below come from the Kinase Knowledgebase extract (Sharma et al. 2016).

Each structure is given as a SMILES string.

Broadly, the IC50 is the point on the concentration scale where inhibition reaches its midpoint. A low value points to inhibition by little substance.

For the experiment, the target named is MAPK14 (UniProt Q16539). Kind of experiment: Inhibition of MAPK14 Kinase Activity.
Sequence of MAPK14 (Q16539 whole entry, looked up): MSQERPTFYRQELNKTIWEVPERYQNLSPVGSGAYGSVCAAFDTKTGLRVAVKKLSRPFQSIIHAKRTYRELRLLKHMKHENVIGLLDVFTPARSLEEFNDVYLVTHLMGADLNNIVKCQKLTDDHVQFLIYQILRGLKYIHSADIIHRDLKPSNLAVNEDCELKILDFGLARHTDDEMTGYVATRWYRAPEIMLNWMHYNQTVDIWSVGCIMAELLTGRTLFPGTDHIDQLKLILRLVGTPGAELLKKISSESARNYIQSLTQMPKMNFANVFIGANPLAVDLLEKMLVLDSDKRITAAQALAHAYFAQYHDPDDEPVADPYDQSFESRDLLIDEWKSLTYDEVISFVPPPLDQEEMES

`O=C1OCCN1c1ccc2c(-c3c(-c4ccccn4)nn4c3CCC4)ccnc2c1`: the IC50 was determined as 2060 nM. That is a single-digit micromolar value.
`COC(=O)Nc1ccc2c(-c3c(-c4ccccn4)nn4c3CCC4)ccnc2c1` displayed an IC50 of 526 nM. Against the preceding compound, the IC50 is about 3.9-fold lower.
`CN(C)CC(=O)Nc1ccc2c(-c3c(-c4ccccn4)nn4c3CCC4)ccnc2c1` displayed an IC50 of 1460 nM.
Compound `CN(C)CCNC(=O)Nc1ccc2c(-c3c(-c4ccccn4)nn4c3CCC4)ccnc2c1` registered an IC50 of 867 nM. Compared with the last compound, the IC50 is about 1.7-fold lower.
On to `CN(C)CCC(=O)Nc1ccc2c(-c3c(-c4ccccn4)nn4c3CCC4)ccnc2c1`, for which the IC50 is 2460 nM.
Turning to `Nc1ccc2c(-c3c(-c4ccccn4)nn4c3CCC4)ccnc2c1`, the IC50 was found to be 2570 nM.
`O=C(NCCO)Nc1ccc2c(-c3c(-c4ccccn4)nn4c3CCC4)ccnc2c1` gave an IC50 of 1080 nM.
`O=C(Nc1ccc2c(-c3c(-c4ccccn4)nn4c3CCC4)ccnc2c1)Nc1ccc2c(-c3c(-c4ccccn4)nn4c3CCC4)ccnc2c1`: the IC50 came out at 4640 nM.
Take `CC(=O)Nc1ccc2c(-c3c(-c4ccccn4)nn4c3CCC4)ccnc2c1`: the IC50 was found to be 1340 nM.
As to `COCCNC(=O)Nc1ccc2c(-c3c(-c4ccccn4)nn4c3CCC4)ccnc2c1`, the IC50 worked out at 1050 nM.
`O=C(Nc1ccc2c(-c3c(-c4ccccn4)nn4c3CCC4)ccnc2c1)OCCO` displayed an IC50 of 616 nM. This IC50 is about 1.7-fold lower than that of the compound before.
